IC50 and melting point data for 20 compounds are collected here from US8461178B2, “Naphthyridine derivatives and the use thereof as kinase inhibitors” (Aeterna Zentaris GmbH, priority 2009, dated 2013).

Like-named read-outs stand apart in the source and are kept apart here.

Series [1] has as its target T1, Aurora-B (Homo sapiens, UniProt Q96GD4).
T1 construct: in some cases as full-length kinases, in some cases as truncated fragments; purchased Upstate/Millipore #14-835
Briefly: Cell-free kinase assay (ALPHA technology), Aurora-B. The series is classed as biochemical. Here is the method: The kinase reaction was stopped by adding 10 μl of the ALPHA bead mix (10 μg/ml, #6760617/PerkinElmer), pre-incubated with anti-phospho PLK antibody (100 pM, #5070, Cell Signaling), in 25 mM Tris, 200 mM NaCl, 100 mM EDTA and 0.3% BSA, and left to stand overnight. The luminiscence was detected the next morning in a Envision instrument (Perkin Elmer). […] 0% controls contained no ATP whereas the 100% controls contained no test substance. The IC50 values were determined with GraphPadPrism.

Series [2] concerns the target cRaf-Mek1-Erk2 (Homo sapiens, UniProt P04049+P28482+Q02750). The following applies: read-out: IC50 cRaf-Mek-Erk; at 10 μM ATP. Here is the method: The inhibitory effect of the inventive compounds was tested on various human serine/threonine kinases and tyrosine kinases in enzymatic assays. Recombinant human kinases, for example Aurora-B, cRaf-Mek1-Erk2, Erk2, Pim-1, HIPK1, KDR, TrkA, Yes, c-Abl and others were used, in some cases as full-length kinases, in some cases as truncated fragments—but at least consisting of the functional kinase domains. The commercial kinase proteins (Proqinase, Millipore) were used as recombinant fusion proteins with GST (glutathione S-transferase) tag or His tag. Depending on the substrate type, the different kinase reactions were quantified by suitable ALPHA™ beads (PerkinElmer).
The calculation of % inhibition values per substance concentration was done by means of the following formula from the raw data determined in the Envision reader:
(§1) The controls were determined 16 fold. 0% controls contained no ATP whereas the 100% controls contained no test substance. The IC50 values were determined with GraphPadPrism.

Series [3] has as its target T2, Erk2 (Homo sapiens, UniProt P28482).
T2 construct: in some cases as full-length kinases, in some cases as truncated fragments
Briefly: Cell-free kinase assay (ALPHA technology), Erk2. The series is classed as biochemical. The following applies: at 10 μM ATP. Here is the method: as §1

Where [4] appears, read: at 10 μM ATP, read-out: IC50 Aurora-B.
The mark [5] stands for this setting: read-out: IC50 values against Aurora-B.

T2 sequence (P28482 whole entry, the tested form may be a part): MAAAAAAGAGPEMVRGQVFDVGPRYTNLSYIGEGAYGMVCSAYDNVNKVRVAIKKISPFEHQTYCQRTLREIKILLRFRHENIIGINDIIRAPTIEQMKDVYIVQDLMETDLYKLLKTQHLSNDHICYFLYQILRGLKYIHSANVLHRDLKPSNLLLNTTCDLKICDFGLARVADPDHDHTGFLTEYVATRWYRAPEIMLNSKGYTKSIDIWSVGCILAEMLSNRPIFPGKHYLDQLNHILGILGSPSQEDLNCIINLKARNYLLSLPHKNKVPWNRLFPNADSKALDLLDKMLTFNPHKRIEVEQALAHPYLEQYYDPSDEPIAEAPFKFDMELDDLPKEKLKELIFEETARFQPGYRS
T1 sequence (Q96GD4 whole entry, the tested form may be a part): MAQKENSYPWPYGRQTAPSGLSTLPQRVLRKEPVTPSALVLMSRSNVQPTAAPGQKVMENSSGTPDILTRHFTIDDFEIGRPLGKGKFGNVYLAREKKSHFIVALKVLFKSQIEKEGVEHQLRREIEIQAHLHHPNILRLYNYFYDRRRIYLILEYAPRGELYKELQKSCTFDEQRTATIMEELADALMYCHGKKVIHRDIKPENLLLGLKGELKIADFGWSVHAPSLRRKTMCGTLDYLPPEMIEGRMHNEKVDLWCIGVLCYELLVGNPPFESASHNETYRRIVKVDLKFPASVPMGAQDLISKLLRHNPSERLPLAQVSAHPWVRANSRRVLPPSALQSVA
Chain of cRaf-Mek1-Erk2 (P04049 whole entry, the tested form may be a part): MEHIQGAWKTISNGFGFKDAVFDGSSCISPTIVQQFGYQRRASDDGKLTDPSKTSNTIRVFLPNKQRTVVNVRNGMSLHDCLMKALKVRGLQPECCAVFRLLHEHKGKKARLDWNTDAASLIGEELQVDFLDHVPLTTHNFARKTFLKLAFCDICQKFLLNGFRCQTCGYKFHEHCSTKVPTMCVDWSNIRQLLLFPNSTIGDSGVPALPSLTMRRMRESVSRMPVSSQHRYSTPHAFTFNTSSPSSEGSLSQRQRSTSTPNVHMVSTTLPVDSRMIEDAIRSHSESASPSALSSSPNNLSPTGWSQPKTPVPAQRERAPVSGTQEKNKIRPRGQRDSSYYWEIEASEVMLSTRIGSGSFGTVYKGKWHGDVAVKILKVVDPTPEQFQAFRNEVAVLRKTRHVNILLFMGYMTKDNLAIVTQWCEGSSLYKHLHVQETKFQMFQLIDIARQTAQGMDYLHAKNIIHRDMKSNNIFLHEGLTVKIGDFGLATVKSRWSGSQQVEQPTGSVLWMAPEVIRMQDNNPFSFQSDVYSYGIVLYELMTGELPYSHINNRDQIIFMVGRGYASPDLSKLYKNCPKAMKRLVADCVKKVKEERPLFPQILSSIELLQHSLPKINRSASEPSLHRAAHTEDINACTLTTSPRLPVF
Chain of cRaf-Mek1-Erk2 (Q02750 whole entry, the tested form may be a part): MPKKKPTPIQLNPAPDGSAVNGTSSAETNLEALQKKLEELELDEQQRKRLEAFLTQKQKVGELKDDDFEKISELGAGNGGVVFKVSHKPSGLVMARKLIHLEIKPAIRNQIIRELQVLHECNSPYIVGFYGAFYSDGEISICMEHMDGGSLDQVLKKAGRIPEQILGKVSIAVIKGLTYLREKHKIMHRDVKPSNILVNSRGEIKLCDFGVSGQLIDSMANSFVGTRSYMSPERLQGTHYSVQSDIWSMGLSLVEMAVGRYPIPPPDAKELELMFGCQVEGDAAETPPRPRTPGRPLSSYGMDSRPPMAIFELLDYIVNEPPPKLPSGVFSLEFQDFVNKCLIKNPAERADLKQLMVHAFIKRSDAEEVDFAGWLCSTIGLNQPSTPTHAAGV
Chain of cRaf-Mek1-Erk2 (P28482 2-360): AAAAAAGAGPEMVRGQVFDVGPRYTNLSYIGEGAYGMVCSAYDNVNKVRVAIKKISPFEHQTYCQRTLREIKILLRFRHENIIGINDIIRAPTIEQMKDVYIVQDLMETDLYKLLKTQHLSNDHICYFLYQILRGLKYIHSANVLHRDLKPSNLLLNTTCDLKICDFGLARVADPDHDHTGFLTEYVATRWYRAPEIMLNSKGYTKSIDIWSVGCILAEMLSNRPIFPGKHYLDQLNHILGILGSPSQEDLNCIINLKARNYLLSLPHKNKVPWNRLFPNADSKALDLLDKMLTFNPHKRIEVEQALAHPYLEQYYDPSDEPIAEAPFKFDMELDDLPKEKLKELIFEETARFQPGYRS

In the case of `COc1ccc(-c2cnc3c(NC(=O)NC(C)(C)C)ccnc3c2)cc1OC` [Compound 8, 1-tert-Butyl-3-[7-(3,4-dimethoxy-phenyl)-[1,5]naphthyridin-4-yl]-urea], the melting point is 215 to 216 °C. Besides, the IC50 in series [1] (setting [4]) came to 0.714 µM. Further, the IC50 in series [2] is around 100 µM. In series [3], this compound came in with an IC50 above 100 µM.
On the same counts, the results for `CCNC(=O)Nc1ccnc2cc(-c3ccc(O)c(OC)c3)cnc12` [Compound 9, 1-Ethyl-3-[7-(4-hydroxy-3-methoxy-phenyl)-[1,5]naphthyridin-4-yl]-urea] are 202 to 203 °C, 0.37 µM, above 31.6 µM and around 100 µM.
Compound `CCNC(=O)Nc1ccnc2cc(-c3cnn(C)c3)cnc12` [Compound 10, 1-Ethyl-3-[7-(1-methyl-1H-pyrazol-4-yl)-[1,5]naphthyridin-4-yl]-urea] displayed a melting point of 215 to 216 °C. The IC50 in series [1] (setting [4]) is 0.038 µM. The IC50 in series [1] (setting [5]) is below 0.1 µM. For the same compound, the IC50 in series [2] is above 31.6 µM. Besides, in series [3], the IC50 was above 100 µM.
Regarding `Cn1cc(-c2cnc3c(NC(=O)NC(C)(C)C)ccnc3c2)cn1` [Compound 11, 1-tert-Butyl-3-[7-(1-methyl-1H-pyrazol-4-yl)-[1,5]naphthyridin-4-yl]-urea], the melting point fell in the range of 215 to 216 °C. Further, the IC50 in series [1] (setting [4]) is 0.112 µM. Moreover, the IC50 in series [2] is 12.6 µM. Also, the IC50 in series [3] was above 31.6 µM.
On the same counts, the results for `COc1cc(-c2cnc3c(NC(=O)NC(C)(C)C)ccnc3c2)ccc1O` [Compound 12, 1-tert-Butyl-3-[7-(4-hydroxy-3-methoxy-phenyl)-[1,5]naphthyridin-4-yl]-urea] are 158 to 159 °C, 1.58 µM, above 31.6 µM and above 100 µM.
`CC(C)(C)NC(=O)Nc1ccnc2cc(-c3cc(Cl)c(O)c(Cl)c3)cnc12` [Compound 13, 1-tert-Butyl-3-[7-(3,5-dichloro-4-hydroxy-phenyl)-[1,5]naphthyridin-4-yl]-urea] came in with a melting point above 300 °C. For the same compound, in series [1] (setting [4]), the IC50 was determined as 0.5 µM. Moreover, in series [2], the IC50 came out at 11 µM. This compound came in with an IC50 in series [3] above 100 µM.
On the same counts, the results for `COc1cc(-c2cnc3c(NC(=O)NC4CC4)ccnc3c2)ccc1O` [Compound 14, 1-Cyclopropyl-3-[7-(4-hydroxy-3-methoxy-phenyl)-[1,5]naphthyridin-4-yl]-urea] are 235 to 236 °C, 0.108 µM, 18.1 µM and above 100 µM.
Taken in the same sequence, the figures for `CCNC(=O)Nc1ccnc2cc(-c3cc(Cl)c(O)c(Cl)c3)cnc12` [Compound 15, 1-[7-(3,5-Dichloro-4-hydroxy-phenyl)-[1,5]naphthyridin-4-yl]-3-ethyl-urea] were above 300 °C, 0.227 µM, 7.85 µM and above 31.6 µM.
On the same counts, the results for `CCNC(=O)Nc1ccnc2cc(-c3cc(C)c(O)c(C)c3)cnc12` [Compound 16, 1-Ethyl-3-[7-(4-hydroxy-3,5-dimethyl-phenyl)-[1,5]naphthyridin-4-yl]-urea] are 213 to 214 °C, 3.85 µM, above 31.6 µM and above 31.6 µM.
Compound `Cn1cc(-c2cnc3c(NC(=O)NC4CCC4)ccnc3c2)cn1` [Compound 17, 1-Cyclobutyl-3-[7-(1-methyl-1H-pyrazol-4-yl)-[1,5]naphthyridin-4-yl]-urea] showed a melting point of 215 to 216 °C. The IC50 in series [1] (setting [4]) amounted to 0.048 µM. For the same compound, the IC50 in series [1] (setting [5]) was below 0.1 µM. Further, the IC50 in series [2] was 2.17 µM. Moreover, the 50% inhibitory concentration (IC50) in series [3] was above 100 µM.
On the same counts, the results for `Cn1cc(-c2cnc3c(NC(=O)NC4CC4)ccnc3c2)cn1` [Compound 18, 1-Cyclopropyl-3-[7-(1-methyl-1H-pyrazol-4-yl)-[1,5]naphthyridin-4-yl]-urea] are 223 to 224 °C, 0.013 µM, below 0.1 µM, 7.45 µM and above 100 µM.
On the same counts, the results for `CCCNC(=O)Nc1ccnc2cc(-c3cnn(C)c3)cnc12` [Compound 19, 1-[7-(1-Methyl-1H-pyrazol-4-yl)-[1,5]naphthyridin-4-yl]-3-propyl-urea] are 216 to 217 °C, 0.026 µM, below 0.1 µM, 9.74 µM and above 100 µM.
`Cn1cc(-c2cnc3c(NC(=O)NCC(F)(F)F)ccnc3c2)cn1` [Compound 20, 1-[7-(1-Methyl-1H-pyrazol-4-yl)-[1,5]naphthyridin-4-yl]-3-(2,2,2-trifluoro-ethyl)-urea] displayed a melting point above 300 °C. Also, the IC50 in series [1] (setting [4]) is 0.129 µM. Also, the IC50 in series [2] is 27.3 µM. The IC50 in series [3] was above 100 µM.
On the same counts, the results for `Cn1cc(-c2cnc3c(NC(=O)NCCCCc4ccccc4)ccnc3c2)cn1` [Compound 21, 1-[7-(1-Methyl-1H-pyrazol-4-yl)-[1,5]naphthyridin-4-yl]-3-(4-phenyl-butyl)-urea] are 185 to 186 °C, 0.141 µM, 16.9 µM and above 31.6 µM.
On the same counts, the results for `Cn1cc(-c2cnc3c(NC(=O)NC4CCCCC4)ccnc3c2)cn1` [Compound 22, 1-Cyclohexyl-3-[7-(1-methyl-1H-pyrazol-4-yl)-[1,5]naphthyridin-4-yl]-urea] are 200 to 201 °C, 0.354 µM, above 31.6 µM and above 100 µM.
Taken in the same sequence, the figures for `Cn1cc(-c2cnc3c(NC(=O)Nc4ccccc4)ccnc3c2)cn1` [Compound 23, 1-[7-(1-Methyl-1H-pyrazol-4-yl)-[1,5]naphthyridin-4-yl]-3-phenyl-urea] were 294 to 295 °C, 1.26 µM, above 100 µM and above 100 µM.
`Cn1cc(-c2cnc3c(NC(=O)NC4CC(F)(F)C4)ccnc3c2)cn1` [Compound 24, 1-(3,3-Difluoro-cyclobutyl)-3-[7-(1-methyl-1H-pyrazol-4-yl)-[1,5]naphthyridin-4-yl]-urea] showed a melting point of 229 to 230 °C. Moreover, the IC50 in series [1] (setting [4]) amounted to 0.784 µM. Also, the IC50 in series [2] stood at 26.2 µM. This compound returned an IC50 in series [3] above 100 µM.
On the same counts, the results for `CCCCCCNC(=O)Nc1ccnc2cc(-c3cnn(C)c3)cnc12` [Compound 25, 1-Hexyl-3-[7-(1-methyl-1H-pyrazol-4-yl)-[1,5]naphthyridin-4-yl]-urea] are 188 to 189 °C, 0.885 µM, above 100 µM and above 100 µM.
Take `Cn1cc(-c2cnc3c(NC(=O)NCc4ccccc4)ccnc3c2)cn1` [Compound 31, 1-Benzyl-3-[7-(1-methyl-1H-pyrazol-4-yl)-[1,5]naphthyridin-4-yl]-urea]: the melting point is 237 to 238 °C. In series [1] (setting [4]), the IC50 worked out at 0.066 µM. Further, in series [2], the IC50 is above 100 µM. Further, the IC50 in series [3] is above 100 µM.
In the case of `CCCCNC(=O)Nc1ccnc2cc(-c3cnn(C)c3)cnc12` [Compound 32, 1-Butyl-3-[7-(1-methyl-1H-pyrazol-4-yl)-[1,5]naphthyridin-4-yl]-urea], the melting point was in the range of 219 to 220 °C. Further, the IC50 in series [1] (setting [4]) is 0.164 µM. Besides, the IC50 in series [2] is 12.8 µM. This compound also showed an IC50 in series [3] above 31.6 µM.

The term IC50 denotes the midpoint of a concentration-inhibition curve. One may read the melting point as the temperature of the solid-liquid transition.
